From ChEMBL document CHEMBL1147996, “Synthesis and biological evaluation of phosphino dipeptide isostere inhibitor of human beta-secretase (BACE1)” (Bioorg Med Chem, 2007) come the findings set out here.

A short description of assay [1]: Inhibition of porcine pepsin. Also on record: species or system Sus scrofa.
In assay [2] the target is T1, Beta-secretase 2 (Homo sapiens, UniProt Q9Y5Z0).
T1 sequence (Q9Y5Z0 whole entry): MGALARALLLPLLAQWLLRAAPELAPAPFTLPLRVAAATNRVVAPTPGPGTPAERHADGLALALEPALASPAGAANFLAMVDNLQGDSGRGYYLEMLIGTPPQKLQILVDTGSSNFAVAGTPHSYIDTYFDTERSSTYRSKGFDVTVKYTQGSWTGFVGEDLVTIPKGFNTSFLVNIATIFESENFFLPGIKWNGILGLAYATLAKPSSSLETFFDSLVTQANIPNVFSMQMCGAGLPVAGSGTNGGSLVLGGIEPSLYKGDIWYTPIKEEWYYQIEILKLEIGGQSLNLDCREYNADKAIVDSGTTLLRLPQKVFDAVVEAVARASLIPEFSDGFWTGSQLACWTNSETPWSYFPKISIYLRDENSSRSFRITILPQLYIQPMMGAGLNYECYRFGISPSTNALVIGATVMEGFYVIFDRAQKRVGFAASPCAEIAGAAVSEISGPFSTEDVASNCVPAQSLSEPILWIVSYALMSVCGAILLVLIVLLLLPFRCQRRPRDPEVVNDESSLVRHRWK
Nature of the assay: Inhibition of BACE2 expressed in HEK293 cells. It counts as cell-based.

Assay [3] deals with Cathepsin D (Homo sapiens, UniProt P07339). Nature of the assay: Inhibition of cathepsin D expressed in HEK293 cells. It is filed as cell-based.
Chain of Cathepsin D (P07339 65-162 limits assumed): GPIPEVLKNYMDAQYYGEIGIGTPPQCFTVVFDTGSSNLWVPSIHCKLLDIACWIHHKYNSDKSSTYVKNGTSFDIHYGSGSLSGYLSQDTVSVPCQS
Chain of Cathepsin D (P07339 169-412 limits assumed): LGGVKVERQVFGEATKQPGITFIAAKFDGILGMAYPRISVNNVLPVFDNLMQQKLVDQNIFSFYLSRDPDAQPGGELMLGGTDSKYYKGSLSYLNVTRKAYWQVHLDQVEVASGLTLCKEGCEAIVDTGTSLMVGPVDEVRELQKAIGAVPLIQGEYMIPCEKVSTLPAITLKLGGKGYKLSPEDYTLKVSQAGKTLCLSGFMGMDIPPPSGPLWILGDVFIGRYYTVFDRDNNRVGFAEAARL
Assay [4] deals with Beta-secretase 1 (Homo sapiens, UniProt P56817). Description: Inhibition of human BACE1 expressed in HEK293 cells. It counts as cell-based.
Chain of Beta-secretase 1 (P56817 whole entry): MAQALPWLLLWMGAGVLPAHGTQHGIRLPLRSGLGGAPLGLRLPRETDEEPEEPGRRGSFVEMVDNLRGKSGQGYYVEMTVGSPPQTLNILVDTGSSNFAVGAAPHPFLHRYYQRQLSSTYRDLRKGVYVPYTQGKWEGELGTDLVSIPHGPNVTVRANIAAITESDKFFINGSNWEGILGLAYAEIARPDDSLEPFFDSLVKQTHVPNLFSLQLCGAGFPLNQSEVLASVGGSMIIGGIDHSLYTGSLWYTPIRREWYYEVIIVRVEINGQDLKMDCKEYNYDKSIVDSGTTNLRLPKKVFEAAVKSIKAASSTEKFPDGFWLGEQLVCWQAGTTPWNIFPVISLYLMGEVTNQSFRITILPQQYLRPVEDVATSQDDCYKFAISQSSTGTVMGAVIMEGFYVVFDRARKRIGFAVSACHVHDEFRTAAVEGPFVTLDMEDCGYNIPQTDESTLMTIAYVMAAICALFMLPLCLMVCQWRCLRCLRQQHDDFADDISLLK

pIC50: −log10 of the molar value. *1 amine or outer side, *2 acyl side, *3 side chain or, on linkers, in order; H or OH if unused. Where a SMILES comes first, the peptide text is derived from it. [ ]: non-standard residue; d: D form. X3 = CC(C)C[C@@H](N[*:1])P(=O)(O)CC(C)C(=O)[*:2]; X1 = CC(C)C[C@H](N[*:1])P(=O)(O)CC(C)C(=O)[*:2]; X2 = CC(C)CC(N[*:1])P(=O)(O)CC(C)C(=O)[*:2]

Usually pIC50 stands for the negative decadic logarithm of the IC50, by convention in mol/L. Low values mean a large IC50, high ones a small IC50. Turning to `CC(C)C[C@H](NC(=O)[C@@H](N)CCC(=O)O)C(=O)N[C@@H](CC(=O)O)C(=O)N[C@@H](CC(C)C)P(=O)(O)CC(C)C(=O)N[C@H](C(=O)N[C@@H](CCC(=O)O)C(=O)N[C@@H](Cc1ccccc1)C(=O)O)C(C)C` (stereo partly specified) (H-ELD[X1]VEF-OH), the pIC50 was 8.10 in assay [1], 7.92 in assay [2], 7.55 in assay [3] and 7.92 in assay [4].

In the case of `CC(C)CC(NC(=O)[C@H](CC(=O)O)NC(=O)[C@H](CC(C)C)NC(=O)[C@@H](N)CCC(=O)O)P(=O)(O)CC(C)C(=O)N[C@H](C(=O)N[C@@H](CCC(=O)O)C(=O)N[C@@H](Cc1ccccc1)C(=O)O)C(C)C` (stereo partly specified) (H-ELD[X2]VEF-OH), the pIC50 in assay [4] was 6.17.

For the compound `CC(C)C[C@H](NC(=O)[C@@H](N)CCC(=O)O)C(=O)N[C@@H](CC(=O)O)C(=O)N[C@H](CC(C)C)P(=O)(O)CC(C)C(=O)N[C@H](C(=O)N[C@@H](CCC(=O)O)C(=O)N[C@@H](Cc1ccccc1)C(=O)O)C(C)C` (stereo partly specified) (H-ELD[X3]VEF-OH), the pIC50 in assay [4] was 5.69.
